In this experiment the test system is ornithine decarboxylase (ODC). Nature of the experiment: Ornithine decarboxylase (ODC) assay: inhibition of TPA induction of ODC activity. It is filed as cell-based. From the text:
A classic measure of retinoic acid activity involves measuring the effects of refinoic acid on ornithine decarboxylase (ODC). The original work on the correlation between retinoic acid and decrease in cell proliferation was done by Verma & Boutwell, Cancer Research, 1977,37, 2196-2201. That reference discloses that ornithine decarboxylase activity increased precedent to polyamine biosynthesis. It has been established elsewhere that increases in polyamine synthesis can be correlated or associated with cellular proliferation. Thus, if ODC activity could be inhibited, cell hyperproliferation could be modulated. Although all cases for ODC activity increases are unknown, it is known that 12-O-tetradecanoylphorbol-13-acetate (TPA) induces ODC activity. Retinoic acid inhibits this induction of ODC activity by TPA. […] “IC60” is that concentration of the test compound which causes 60% inhibition in the ODC assay. By analogy, “IC80”, for example, is that concentration of the test compound which causes 80% inhibition in the ODC assay.

The structures appear in SMILES notation.

`CCOC(=O)c1ccc(C#C/C=C/C2=C(O[Si](C)(C)C)CCCC2(C)C)cc1` [Compound 1, Ethyl (±)-(E)-4-(4-(6,6-dimethyl-2-(trimethylsily)oxycyclohex-1-enyl)but-3-en-1-yn-yl)benzoate]: the IC80 (footnote 1: IC80, read-out: IC80 (concentration of the test compound which causes 80% inhibition in the ODC assay)) is 0.46 nM.
`CCOC(=O)c1ccc(C#C/C=C/C2=C(C(=O)OC)CCCC2(C)C)cc1` [Compound 6, Ethyl (E)-4-(4-(6-Carbomethoxy-2,2-dimethylcyclohex-1-enyl)but-3-en-1-yn-yl)benzoate]: under “footnote 2: IC60”, the “IC60 (concentration of the test compound which causes 60% inhibition in the ODC assay)” value is 0.3^2 nanomolar.

(Values after patent US6465646B1, “1-alkoxy and 1-acyloxy substituted cyclohex-1-ene compounds and sulfur and 1-alkoxycarbonyl analogs having retinoid-like biological activity” (Allergan, Inc., priority 1999, dated 2002).)
